Where “and” joins values, the source holds several entries; their conditions need not be identical. Equal values may be shown once. Read-outs that look alike come from different tables or passages of the source.
Assays:
[1] = test system: Plasmodium berghei; parameters: method as in PMID 34865639; settings: Plasmodium berghei murine model; cited from earlier work
[2] = test system: T. cruzi trypomastigotes; assay: T. cruzi trypomastigote viability / rate of action assay (CellTiter-Glo bioluminescence); format: cell-based, Trypanosoma cruzi; settings: for EC50: Trypanosoma cruzi; for EC90/EC50 / Hill slope: Trypomastigotes
Procedure: Tulahuen T. cruzi trypomastigotes were recovered 6 days post infection from the supernatant of harvested infected L6 cells cultures after 3 hours at 37°C. 90 μL of parasite culture at a density of 5 × 10^6 cells in RPMI 1640 media were dispensed into 96 Nunc flat bottom assay plates containing 10 μL of each compound.
Parasite viability was assessed upon 24, 48 and 72 hour incubation at 37°C in 5% CO2 by adding 50 μL of CellTiter-Glo viability reagent to white 96-well microplates. After signal stabilization, bioluminescence was read. Compound concentrations ranged from 0.1 μM to 50 μM and final maximal DMSO percentage in the well was 0.05%. Results were normalized to […] control columns in each plate.

[3] = test system: T. cruzi epimastigotes; assay: Quantification of ATP intracellular levels (CellTiter-Glo); format: cell-based, Trypanosoma cruzi; settings: for ATP content, individual replicates: single replicates
Procedure: ATP was determined using the CellTiter-Glo assay. Optimum readout conditions and linearity of the assay were established for T. cruzi epimastigotes by testing different cell densities. The assay was linear up to 100,000 cells (in 90 μl) per well. 50,000 cells (from log phase cultures) per well were dispensed into 96-well white flat bottom microplates containing 10 μl of strasseriolide C at concentrations ranging from 0.4 to 6.25 μM and grown at 28°C for 72 hours with orbital shaking. ATP standard curves were obtained using concentrations ranging from 0.1 to 100 pmol of ATP disodium salt in 90 μl of LIT medium per well. Both samples and standards were assayed in triplicate. 70 μL of CellTiter-Glo solution were added to treated and control parasites and to the standard curve wells, and luminescence detection was recorded after 15 minutes incubation in a Tecan Infinite 200 microplate reader.
To determine if ATP production was affected by these compounds, we measured intracellular levels in T. cruzi epimastigotes. After 72-hour treatment with strasseriolide C at doses ranging from 0.4 to 6.25 μM, 70 μl of Cell-Titer Glo reagent were added with a multichannel pipette. Plates were incubated at 28°C for 10 minutes, after which luminescence was recorded. Luminescence relative light unit (RLU) values were interpolated in the ATP calibration curve (S4A Fig) and pmol of ATP per well were quantified. Considering proliferation inhibition due to strasseriolide C activity, values were normalized with respect to the number of parasites as determined by counting in a Neubauer chamber using phase contrast microscopy.

[4] = parameters: method as in PMID 34865639; settings: murine model, cited from earlier work
[5] = 24 h, 0.0976562 µM, untreated 165925
[6] = 24 h, 0.195312 µM, untreated 165925
[7] = 24 h, 0.390625 µM, untreated 165925
[8] = 24 h, 0.78125 µM, untreated 165925
[9] = 24 h, 1.5625 µM, untreated 165925
[10] = 24 h, 3.125 µM, untreated 165925
[11] = 24 h, 6.25 µM, untreated 165925
[12] = 24 h, 12.5 µM, untreated 165925
[13] = 48 h, 0.0976562 µM, untreated 141819
[14] = 48 h, 0.195312 µM, untreated 141819
[15] = 48 h, 0.390625 µM, untreated 141819
[16] = 48 h, 0.78125 µM, untreated 141819
[17] = 48 h, 1.5625 µM, untreated 141819
[18] = 48 h, 3.125 µM, untreated 141819
[19] = 48 h, 6.25 µM, untreated 141819
[20] = 48 h, 12.5 µM, untreated 141819
[21] = 72 h, 0.0976562 µM, untreated 100126
[22] = 72 h, 0.195312 µM, untreated 100126
[23] = 72 h, 0.390625 µM, untreated 100126
[24] = 72 h, 0.78125 µM, untreated 100126
[25] = 72 h, 1.5625 µM, untreated 100126
[26] = 72 h, 3.125 µM, untreated 100126
[27] = 72 h, 6.25 µM, untreated 100126
[28] = 72 h, 12.5 µM, untreated 100126

C/C1=C\[C@H](C)[C@@H](O)C[C@@H](O)/C(C)=C/[C@H](C)C[C@@H](C)CC[C@@H]([C@@H](C)C(=O)O)OC(=O)[C@@H](C)C1 [Strasseriolide D, strasseriolide D]
in vivo antiprotozoal activity [1]: exhibit in vivo antiprotozoal activity

C/C1=C\[C@H](C)C(=O)C[C@@H](O)/C(C)=C/[C@H](C)C[C@@H](C)CC[C@@H]([C@@H](C)C(=O)O)OC(=O)[C@@H](C)C1 [Strasseriolide C, strasseriolide C]
RLU Average, trypomastigote viability [2, 5]: 163790 RLU
RLU Average, trypomastigote viability [2, 6]: 163102 RLU
RLU Average, trypomastigote viability [2, 7]: 158420 RLU
RLU Average, trypomastigote viability [2, 8]: 147331 RLU
RLU Average, trypomastigote viability [2, 9]: 130562 RLU
RLU Average, trypomastigote viability [2, 10]: 103284 RLU
RLU Average, trypomastigote viability [2, 11]: 45263 RLU
RLU Average, trypomastigote viability [2, 12]: 26648 RLU
RLU Average, trypomastigote viability ([2]; 24 h, 25 µM, untreated 165925): 23620 RLU
RLU Average, trypomastigote viability ([2]; 24 h, 50 µM, untreated 165925): 23277 RLU
RLU Average, trypomastigote viability [2, 13]: 140243 RLU
RLU Average, trypomastigote viability [2, 14]: 138438 RLU
RLU Average, trypomastigote viability [2, 15]: 137289 RLU
RLU Average, trypomastigote viability [2, 16]: 133179 RLU
RLU Average, trypomastigote viability [2, 17]: 131008 RLU
RLU Average, trypomastigote viability [2, 18]: 112009 RLU
RLU Average, trypomastigote viability [2, 19]: 31326 RLU
RLU Average, trypomastigote viability [2, 20]: 8227 RLU
RLU Average, trypomastigote viability ([2]; 48 h, 25 µM, untreated 141819): 5426 RLU
RLU Average, trypomastigote viability ([2]; 48 h, 50 µM, untreated 141819): 4626 RLU
RLU Average, trypomastigote viability [2, 21]: 97547 RLU
RLU Average, trypomastigote viability [2, 22]: 99515 RLU
RLU Average, trypomastigote viability [2, 23]: 99635 RLU
RLU Average, trypomastigote viability [2, 24]: 98868 RLU
RLU Average, trypomastigote viability [2, 25]: 97232 RLU
RLU Average, trypomastigote viability [2, 26]: 91895 RLU
RLU Average, trypomastigote viability [2, 27]: 17556 RLU
RLU Average, trypomastigote viability [2, 28]: 4224 RLU
RLU Average, trypomastigote viability ([2]; 72 h, 25 µM, untreated 100126): 2493 RLU
RLU Average, trypomastigote viability ([2]; 72 h, 50 µM, untreated 100126): 1583 RLU
EC50 ([2]; 24 h): 3.29 µM
EC50 ([2]; 48 h): 4.45 µM
EC50 ([2]; 72 h): 4.77 µM
EC90/EC50 ([2]; 24 h): 3.20
Hill slope ([2]; 24 h): 2.11
EC90/EC50 ([2]; 48 h): 1.72
Hill slope ([2]; 48 h): 4.10
Hill slope ([2]; 48 h, listed as C): 4.1
EC90/EC50 ([2]; 48 h, listed as strasseriolide C): 1.7
EC90/EC50 ([2]; 72 h): 1.42
Hill slope ([2]; 72 h): 6.31
Hill slope ([2]; 72 h, listed as C): 6.3
EC90/EC50 ([2]; 72 h, listed as strasseriolide C): 1.4
ATP content, Average (pmol ATP/cell) ([3]; 0.390625 µM): 1.759e-5 pmol ATP/cell
ATP content, individual replicates ([3]; 0.390625 µM): 1.792e-5 pmol ATP/cell and 1.833e-5 pmol ATP/cell and 1.6509e-5 pmol ATP/cell
ATP content, Average (pmol ATP/cell) ([3]; 0.78125 µM): 1.732e-5 pmol ATP/cell
ATP content, individual replicates ([3]; 0.78125 µM): 1.756e-5 pmol ATP/cell and 1.79e-5 pmol ATP/cell and 1.649e-5 pmol ATP/cell
ATP content, Average (pmol ATP/cell) ([3]; 1.5625 µM): 1.679e-5 pmol ATP/cell
ATP content, individual replicates ([3]; 1.5625 µM): 1.677e-5 pmol ATP/cell and 1.743e-5 pmol ATP/cell and 1.6178e-5 pmol ATP/cell
ATP content, Average (pmol ATP/cell) ([3]; 3.125 µM): 1.67e-5 pmol ATP/cell
ATP content, individual replicates ([3]; 3.125 µM): 1.693e-5 pmol ATP/cell and 1.736e-5 pmol ATP/cell and 1.58e-5 pmol ATP/cell
ATP content, Average (pmol ATP/cell) ([3]; 6.25 µM): 1.53e-5 pmol ATP/cell
ATP content, individual replicates ([3]; 6.25 µM): 1.501e-5 pmol ATP/cell and 1.61e-5 pmol ATP/cell and 1.48e-5 pmol ATP/cell
cellular ATP pool ([3]; epimastigotes, 72 h, 0.4 to 6.25 μM, normalized to parasite number): discrete reduction
in vivo antiprotozoal activity [1]: exhibit in vivo antiprotozoal activity

O=C(Cn1ccnc1[N+](=O)[O-])NCc1ccccc1 [Benznidazole, benznidazole]
RLU Average, trypomastigote viability [2, 5]: 168859 RLU
RLU Average, trypomastigote viability [2, 6]: 163337 RLU
RLU Average, trypomastigote viability [2, 7]: 166320 RLU
RLU Average, trypomastigote viability [2, 8]: 165144 RLU
RLU Average, trypomastigote viability [2, 9]: 164063 RLU
RLU Average, trypomastigote viability [2, 10]: 161383 RLU
RLU Average, trypomastigote viability [2, 11]: 134179 RLU
RLU Average, trypomastigote viability [2, 12]: 39621 RLU
RLU Average, trypomastigote viability ([2]; 24 h, 25 µM, untreated 165925): 10652 RLU
RLU Average, trypomastigote viability ([2]; 24 h, 50 µM, untreated 165925): 5606 RLU
RLU Average, trypomastigote viability [2, 13]: 139946 RLU
RLU Average, trypomastigote viability [2, 14]: 134140 RLU
RLU Average, trypomastigote viability [2, 15]: 131074 RLU
RLU Average, trypomastigote viability [2, 16]: 112587 RLU
RLU Average, trypomastigote viability [2, 17]: 83947 RLU
RLU Average, trypomastigote viability [2, 18]: 48357 RLU
RLU Average, trypomastigote viability [2, 19]: 13088 RLU
RLU Average, trypomastigote viability [2, 20]: 3643 RLU
RLU Average, trypomastigote viability ([2]; 48 h, 25 µM, untreated 141819): 1831 RLU
RLU Average, trypomastigote viability ([2]; 48 h, 50 µM, untreated 141819): 1028 RLU
RLU Average, trypomastigote viability [2, 21]: 104132 RLU
RLU Average, trypomastigote viability [2, 22]: 98515 RLU
RLU Average, trypomastigote viability [2, 23]: 89377 RLU
RLU Average, trypomastigote viability [2, 24]: 67508 RLU
RLU Average, trypomastigote viability [2, 25]: 34320 RLU
RLU Average, trypomastigote viability [2, 26]: 15352 RLU
RLU Average, trypomastigote viability [2, 27]: 4824 RLU
RLU Average, trypomastigote viability [2, 28]: 2711 RLU
RLU Average, trypomastigote viability ([2]; 72 h, 25 µM, untreated 100126): 1262 RLU
RLU Average, trypomastigote viability ([2]; 72 h, 50 µM, untreated 100126): 683 RLU
EC50 ([2]; 24 h): 8.94 µM
EC50 ([2]; 48 h): 2.05 µM
EC50 ([2]; 72 h): 1.15 µM
Hill slope ([2]; 24 h): 3.93
Hill slope ([2]; 48 h): 1.66
Hill slope ([2]; 48 h, listed as benznidazole): below 2.1
Hill slope ([2]; 72 h): 2.07
Hill slope ([2]; 72 h, listed as benznidazole): below 2.1

C/C1=C\[C@H](C)CC[C@@H](O)/C(C)=C/[C@H](C)C[C@@H](C)CC[C@@H]([C@@H](C)C(=O)O)OC(=O)[C@@H](C)C1 [Strasseriolide B, strasseriolide B]
toxicity in vivo ([4]; listed as B): toxic in vivo
toxicity in vivo ([4]; listed as strasseriolide B): toxic
